This is an account of results in US10143668B2, “Hydroxy-substituted amino and ammonium derivatives and their medical use” (GRI BIO, INC., priority 2011, dated 2018).

Data set [1] has as its system allergic contact dermatitis response in mice. Kind of data set: Allergic contact dermatitis (TDI) model in mice, mouse ear swelling test. It is filed as in vivo. The conditions noted are these: topical, 2 h before challenge. The protocol: The anti-inflammatory and anti-allergic effects of compound 1a were assessed in a mouse model of allergic contact dermatitis, a response driven primarily by T helper type 2 (Th2) cells. […] In this model, an allergic dermatitis response is obtained by sensitizing mice to TDI and subsequently challenging them with antigen by topical administration onto the ears. A quantitative assessment of anti-inflammatory and anti-allergic effects of topically or orally administered test compounds is possible by measuring the resulting ear swelling.
Female BALB/c-mice were obtained from Charles River (Sulzfeld, Germany) at age 8 weeks. All animals were housed in groups of eight per cage at 22° C. with a 12 h light/dark-cycle. Water and a standard diet (Altromin, Lage/Lippe, Germany) were available ad libitum. All animals were acclimatized for one week before experimental procedures were commenced.
Experimental procedures for BALB/c mice housing, TDI sensitization and challenge, and measurement of ear thickness were performed as previously described (Baumer et al., J Pharm Pharmacol. 55:1107-1114 (2003)) with the following modifications. For active sensitization, 100 μL of 5% (w/v) TDI was administered to the shaved and stripped abdominal epidermis on day one, and for the next three consecutive days, 50 μL of 5% (w/v) TDI was applied. The allergic reaction was boosted 21 days later by application of 50 μL of 0.5% (w/v) TDI. For the examination of test compound effects, the left ears were used for the TDI challenge (20 μL of 0.5% in acetone) and ear thickness measured 3 h before and 24 h after challenge.
Administration time: to determine optimal time for administration treatment groups were treated orally by gavage with 100 mg/kg of compound 1a (suspended in 0.5% tylose, 10 mL/kg) 1, 4 or 16 h before topical TDI challenge. One group was treated with 100 mg/kg miltefosine orally, 16 h before challenge (based on available data for optimal administration time for miltefosine) and vehicle treated mice received tylose (10 mL/kg) orally, 4 h before challenge.
Comparison with dexamethasone: one group of mice was treated orally with compound 1a at 100 mg/kg suspended in 0.5% tylose, 4 h before topical TDI challenge. Vehicle treated mice received 0.5% tylose orally 4 h before challenge. As a positive control, dexamethasone was administered in saline solution at 1 mg/kg or 3 mg/kg, 2 h and 30 min before challenge and 1 h after challenge. The dose and dosing scheme for dexamethasone was based on previous experience showing a maximal effect in this model.
[…] The solution was applied, 2 h before topical TDI challenge by administration of 10 μl onto each of the inner and outer surfaces of the left ears. A vehicle group (n=5) was treated with propyleneglycol. As a positive control, diflorasone diacetate was administered at 0.01% (low dose) and 0.05% (high dose) in 20 μl acetone, 2 h before challenge. A basal control group was left untreated.
Mean and standard error of the mean (SEM) were calculated from individual ear edema values. Statistical evaluation was a one-way analysis of variance (ANOVA) (if the test for normal distribution was passed) or the Kruskal-Wallis one-way ANOVA on Ranks (if the normal distribution test failed). Both were followed by a post-hoc test (Dunnett's method or Dunn's test, respectively). A p<0.05 was considered to be significant.

Data set [2] has as its system local lymph node reaction. Kind of data set: Local lymph node weight and cell count after TDI challenge. The conditions noted are these: topical, diflorasone 0.1% and 0.5%, 1a 2% or 6%. The protocol:
Directly after sacrifice, the ear draining lymph node (Ln. auricularis) was prepared and excised. Organ weight was determined by means of an analytical balance (Kern, Balingen, Germany). Single cell suspensions were prepared by means of a glass potter (VWR, Darmstadt, Germany) and cells were counted with a hemocytometer (Neubauer, VWR, Germany).
One of the most undesirable side-effects of corticosteroid administration is immunosuppression, which leads to the inability to effectively address parasitic infection, wound healing and tumor growth. In the current study, the local lymph node reaction after TDI challenge (lymph node weight and cell number) was determined to assess the response of immune organs.

Marks after values point to notes of the source that are not given here.

Turning to `CC(=O)OCC(=O)[C@@]1(OC(C)=O)[C@@H](C)C[C@H]2[C@@H]3C[C@H](F)C4=CC(=O)C=C[C@]4(C)[C@@]3(F)[C@@H](O)C[C@@]21C` [Diflorasone, diflorasone diacetate, reference compound], the figures for the “Inhibition of mouse ear swelling” value in data set [1] (0.1%) and in data set [1] (0.5%) were 101.1*** % and 110.8*** %, respectively. In addition, the “local lymph node reaction (lymph node weight and cell number)” value in data set [2] is recorded as “highly significant reduction”.
